Laboratory results taken from patent US10450570B2, “Compositions and methods for controlling vasculature” (YALE UNIVERSITY, priority 2016, dated 2019).
Blank lines part the entries; values can stand above or below the compound they belong to.

Assays:
HDLECs [1] = experiment: Glycolytic flux measurement (5-3H-glucose); format: cell-based, human
Experimental: (§1) Glycolysis was measured as previously described. Briefly, subconfluent HDLECs cultured in 12-well plates were incubated with 1 ml/well EBM2 medium (containing appropriate amount of serum and supplement) with 80 μCi/mmol 5-^3H-glucose (Perkin Elmer) for 2-3 hr. Then 0.8 ml/well medium was transferred into glass vials with hanging wells and filter papers soaked with H2O. After incubation in a cell culture incubator for at least 2 days to reach saturation, filter papers were taken out and the amount of evaporated ^3H2O was measured in a scintillation counter. Glucose oxidation, glutamine oxidation and fatty acid oxidation were measured essentially as reported. For measurement of glucose uptake, HDLECs were incubated with 2-[1-^14C]-deoxy-D-glucose (2.5 μCi/ml, Perkin Elmer) for 10 min. before PBS washing (at least 3 times to get rid of all radioactive medium) and then lysis with 500 μL 0.1 N NaOH. 400 μl NaOH cell lysate for each sample was transferred to scintillation vials containing scintillation liquid and measured.

HDLECs [2] = experiment: Glucose uptake measurement (2-[1-14C]-deoxy-D-glucose); format: cell-based, human
Experimental: as §1

HDLECs [3] = experiment: Mass spectrometry of glycolytic metabolites and ATP; format: cell-based, human
Experimental: HDLECs were quenched by a rapid wash with ice-cold PBS and then collected in 150 μl of an ice-cold solution containing 20% methanol, 0.1% formic acid, 1 mM phenylalanine, 3 mM NaF and 100 μM EDTA. ^2H4-Taurine (10 μM, CDN Isotopes) was used as a loading control. All the samples were lyophilized and resuspended in 50 μL of water prior the LC-MS/MS analysis. Samples were injected onto a Cogent Diamond Hydride™ column (2.2 μm particle size, 2.1 mm×10 cm) at a flow rate of 0.5 mL/min. Glycolytic intermediates were eluted isocratically with a 95% aqueous/5% organic solvent mixture. The aqueous solution contained 15 mM ammonium formate. The organic solution contained 60% acetonitrile, 35% isopropyl alcohol and 15 mM ammonium formate. Samples were ionized by electrospray into an ABSCIEX 5500 QTRAP equipped with a SelexION for differential mobility separation (DMS) and acquired using multiple reaction monitoring (MRM) in negative mode, as described previously. DMS-based separation of fructose-6-phosphate from glucose-6-phosphate, as well as the separation of ATP, ADP and AMP nucleotides, was achieved using no modifier. Isopropyl alcohol was used as modifier for the DMS-based separation of the remaining glycolytic intermediates. […]

[4] = test system: HK2 and other glycolytic enzymes in HDLECs; experiment: Western blot of glycolytic enzyme expression in HDLECs; format: cell-based, human; conditions: protein
Experimental: (§2) Human dermal lymphatic endothelial cells (HDLECs, HMVEC-dLyNeo-Der Lym Endo EGM-2MV) and Pooled human umbilical vein endothelial cells (HUVECs) were purchased from Lonza and cultured in EBM2 basal medium with EGM-2 MV BulletKit. Both cell types were tested negative for mycoplasma in Lonza. Culture medium was changed every the other day. Tissue culture plates were coated with 0.1% gelatin (Sigma) for 30 min at 37° C. and washed with Dulbecco's Phosphate-Buffered Saline (Life Technologies) before cell plating. For siRNA-mediated gene knockdown, FGFR1 siRNA (ON-TARGETplus human FGFR1 siRNA, Dharmacon; Hs_FGFR1_6, Qiagen), FGFR3 siRNA (Hs_FGFR3_6, Qiagen), HK2 siRNA (s6562 human HK2 siRNA, Life Technologies), c-Myc siRNA (ON-TARGETplus human Myc siRNA, Dharmacon), AllStar negative control siRNA (Qiagen), and ON-TARGETplus Non-targeting pool (Dharmacon) were transfected by lipofectamine RNAimax reagent (Life Technologies). Human FGF2 was provided by Kaken Pharmaceutical Co, Ltd (Japan) and ordered from Peprotech. Human VEGFC, VEGFD, IGF1, IGF2 and PDGFBB were purchased from Peprotech. To assay the effect of FGFR1 knockdown on glycolytic enzyme expression, HDLECs, transfected with control or FGFR1 siRNA 3 days in advance, were replated and collected for protein analysis 24 hr later when the cell confluency reached ˜80%. […] ImageJ was used for densitometry quantification of western blot bands.

HUVECs = experiment: Glycolytic flux measurement in HUVECs; format: cell-based, human
[5] = test system: HK2 and other glycolytic enzymes in HUVECs; experiment: Western blot of glycolytic enzyme expression in HUVECs; format: cell-based, human
Experimental: as §2

HDLECs [6] = experiment: Three-dimensional bead sprouting assay; format: cell-based, human; conditions: control siRNA HDLEC-coated beads
Experimental: HDLECs were trypsinized and mixed with collagen-coated Cytodex® microcarrier beads (Sigma) in a ratio of 2500 beads to 1×10^6 cells in warm EGM-2 medium in a 15 ml falcon tube. The mixture was incubated at 37° C. for 4 hr., with shaking every 20 min. to ensure even coating of the beads. After 4 hr., the coated beads were transferred to a 6-well plate in 2 ml of EGM-2 medium per well and incubated at 37° C. overnight. The next day, coated beads were embedded into a fibrinogen gel. For each well of a 24-well plate, 300 μl of 3 mg/mL fibrinogen in PBS was used, along with 100 μg/ml of aprotinin (Sigma) and 1.5 unit/ml of thrombin (Sigma). Approximately 250 coated beads were embedded in each well. The plate was then incubated at 37° C. for one hr. to generate a clot. After the gel solidified, human lung fibroblasts in EGM-2 medium were seeded on top at a concentration of 20,000 cells/well. The medium was changed every other day (full EGM-2 medium with 200 ng/mL of FGF2), and the plates were imaged on day 6 using a spinning disk confocal microscope (Perkin Elmer). ImageJ was used to measure the sprout length for the data analysis.

mouse cornea = experiment: Corneal lymphangiogenesis model; format: in vivo; conditions: FGF2-containing pellets implanted, 1 week
Experimental: Slow-releasing pellets containing FGF2 were made as previously described (Tang, Z. et al. JoVE, (2011)). Surgery to implant the pellets into the mouse cornea was performed as reported (Cao, R. et al. Nature protocols 6, 817-826, (2011)). Adult Prox1-CreER^T2(KI); HK2^flox/flox and control mice were i.p. injected with tamoxifen (150 μg/g body weight) every the other day (seven injections total) before the cornea surgery. 1 week after the pellet implantation, eyeballs were harvested for cornea dissection and immunostaining with LYVE1 (Angiobio, #11-034) and PECAM1 (BD Pharmigen, #553370) antibodies and then used for imaging (spinning disk confocal microscopy) and quantification analysis (ImageJ).

Myc expression in HDLECs = experiment: Western blot of Myc expression in HDLECs; format: cell-based, human
Experimental: as §2

[7] = test system: Myc binding to the HK2 E-boxes in HDLECs; experiment: ChIP-qPCR of Myc binding to the HK2 gene; format: cell-based, human
Experimental: ChIP assays were performed using SimpleChIP® Plus Enzymatic Chromatin IP Kit (Cell Signaling) according to manufacturer's protocol with some minor modifications. Basically cells cultured on 20-cm dishes were fixed for 10 min by adding 37% formaldehyde solution to the culture medium to a final concentration of 1%. Fixation was quenched with glycine for 5 min at room temperature. Cells were washed twice with ice-cold PBS, scraped into 2 ml PBS, and centrifuged at 5,000 rpm for 10 min. The cell pellets from two 20-cm dishes were combined and lysed in 1 ml lysis buffer. The lysate was then centrifuged at 5,000 rpm for 5 min at 4° C. and the pellet was resuspended in 100 μl nuclease digestion buffer. The DNA was digested with 0.5 μl of Micrococcal Nuclease for 20 min at 37° C. to a length of approximately 150-900 bp (checked by agarose gel electrophoresis). Lysates were centrifuged and the pellet was resuspended in 500 μl ChIP buffer and sonicated for 3×30 s at power level 2 and 40% constancy. […] The amount of precipitated DNA from each sample was quantified by qPCR using primers flanking the Myc binding element in the HK2 gene. The reading was normalized to that of DNA purified from the previously saved cross-linked chromatin (2% input). The reading by DNA from IP using Myc antibody against that from IgG IP indicated the antibody efficiency for ChIP assay. […]

Myc expression in HUVECs = experiment: Western blot of Myc expression in HUVECs; format: cell-based, human
Experimental: as §2

orthotopic Panc02 tumors = experiment: Murine orthotopic pancreatic tumor model, peritumoral lymphatics (LYVE1); format: in vivo, mouse; conditions: oral, 30 mg/kg/day, compared to vehicle controls
Experimental: The murine pancreatic tumor cell line Panc02 was obtained from Prof. Wiedenmann (Charité University Hospital, Berlin). 1×10^6 tumor cells were injected subcapsularly in the head region of the pancreas of anaesthetized female C57Bl/6 mice (7-9 weeks old, Charles River, France) using a 30-gauge needle. At day 3 after tumor inoculation, tumor-bearing mice were treated daily with SSR (30 mg/kg/day) or vehicle (0.6% methylcellulose) via oral gavage. At day 9, primary tumors were removed, weighted, and tumor volumes (V) were calculated using the formula V=0.52×(a^2×b), where a represents the smallest tumour diameter and b represents the largest tumour diameter. The incidence of tumor invasion into adjacent organs, hemorrhagic ascites, and regional celiac and mesenteric lymph node metastases were recorded, and confirmed by immunohistochemistry on paraffin sections. Paraffin-embedded […] sections were prepared and used for immunohistochemistry using the following antibodies: anti-LYVE1 (Upstate-Cell Signaling Solutions, Bio-connect, Huissen, The Netherlands) and anti-VEGFR3 (eBiosciences). The lymph vessel area in the peritumoral area was analysed using the KS300 software (Zeiss).

zebrafish = experiment: Lymphatic development in zebrafish embryos; format: in vivo; conditions: 0.25 μM, 53 hpf Tg (fli1a:EGFP) embryos, vs DMSO

amount of Myc binding to the HK2 E-boxes [7]: increased by FGF2 treatment
Compound: FGF2: Human FGF2 provided by Kaken Pharmaceutical and ordered from Peprotech
glycolytic flux (HDLECs [1]): doubled
glucose uptake (HDLECs [2]): significantly increased glucose uptake
ATP production (HDLECs [3]): increased
steady-state levels of glycolytic metabolites and lactate (HDLECs [3]): all increased by FGF2 stimulation
glycolytic enzyme (HK2) expression [4]: robust increase in HK2 expression, with minimal changes of other enzymes' expression
glycolysis in HUVECs (HUVECs): enhanced glycolysis
HK2 protein expression in HUVECs [5]: selectively induced HK2 expression albeit to a lesser extent than in LECs
sprouting response (HDLECs [6]): induced a strong sprouting response
lymphangiogenesis in the mouse cornea (mouse cornea): induced robust stimulation of lymphangiogenesis
Myc protein expression (Myc expression in HDLECs): increased Myc protein expression
Myc expression in HUVECs (Myc expression in HUVECs): increased Myc expression

Compound: COc1c(C)c(C(=O)c2ccc(N)c(C(=O)[O-])c2)n2ccccc12.[Na+] [SSR128129E]
lymphatic vasculature in the peri-tumoral area (LYVE1) (orthotopic Panc02 tumors): significant reduction of the lymphatic vasculature in the peri-tumoral area

Compound: Cc1c[nH]c(/C=C2\C(=O)Nc3ccccc32)c1CCC(=O)O [SU5402]
lymphatic development in zebrafish (parachordal line length) (zebrafish): impairs lymphatic development in zebrafish

Compound: IGF1: insulin-like growth factor 1, purchased from Peprotech
glycolytic flux (HDLECs [1]): no effect

Compound: IGF2: insulin-like growth factor 2, purchased from Peprotech
glycolytic flux (HDLECs [1]): reduced flux
